Among the data in patent publication US20250002507A1, “7,8-DIHYDRO-5H-1,6-NAPHTHYRIDINE DERIVATIVES AS POSITIVE ALLOSTERIC MODULATORS OF THE MUSCARINIC ACETYLCHOLINE RECEPTOR M4 FOR TREATING NEUROLOGICAL AND PSYCHIATRIC DISORDERS” (Vanderbilt University, priority 2021, published 2025) are Emax and EC50 values, retold here.

In the experiment the target is T1, Human M4 (Homo sapiens, UniProt P08173).
T1 construct: expressed in transfected cells
T1 sequence (P08173 1-479): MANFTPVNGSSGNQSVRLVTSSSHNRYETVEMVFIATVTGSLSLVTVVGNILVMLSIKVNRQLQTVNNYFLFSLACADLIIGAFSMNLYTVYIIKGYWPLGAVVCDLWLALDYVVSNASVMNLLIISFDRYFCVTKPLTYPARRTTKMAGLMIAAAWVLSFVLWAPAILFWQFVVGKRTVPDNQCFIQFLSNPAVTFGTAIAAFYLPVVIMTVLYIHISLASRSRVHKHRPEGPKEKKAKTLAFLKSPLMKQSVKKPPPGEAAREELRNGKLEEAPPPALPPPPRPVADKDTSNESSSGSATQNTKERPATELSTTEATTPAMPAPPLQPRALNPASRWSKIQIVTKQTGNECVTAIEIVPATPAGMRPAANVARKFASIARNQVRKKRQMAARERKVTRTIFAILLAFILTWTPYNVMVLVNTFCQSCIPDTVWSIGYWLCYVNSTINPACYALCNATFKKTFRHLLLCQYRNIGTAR
Kind of experiment: mAChR M4 cell-based functional assay (calcium flux, potentiation of EC20 acetylcholine response), hM4-Gqi5 CHO-K1 cells. The settings on record: Table 3; for Emax at 30 µM: CHO-K1, Human M4, % ACh maximum at 30 μM, read-out: Emax (% ACh maximum at 30 μM); for EC50: potentiation of EC20 acetylcholine response, calcium flux, CHO-K1 cells, read-out: Human M4 EC50. An outline of the steps:
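CHO-K1 cells stably expressing human M4 with chimeric Gqi5, loaded with Fluo-4 AM 50 min at 37 °C; calcium flux read by FDSS. 11-point 1:3 compound curves added, then EC20 acetylcholine at 144 s; potentiation of the EC20 response fitted by four-parameter logistic to give EC50 and Emax.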

One may read the Emax as the greatest response seen or fitted, relative to the assay's reference. What is called EC50 is the midpoint of the concentration-response curve. For `Cc1c(N2CCc3ncc(C(=O)Nc4ccccc4F)cc3C2)nn2c(C(F)(F)F)nnc2c1C` [Compound 226, 6-(7,8-dimethyl-3-(trifluoromethyl)-[1,2,4]triazolo[4,3-b]pyridazin-6-yl)-N-(2-fluorophenyl)-5,6,7,8-tetrahydro-1,6-naphthyridine-3-carboxamide], the maximal response (Emax) at 30 µM worked out at 79% and the 50% effective concentration (EC50) was 1780 nM.
On to `Cc1c(N2CCc3ncc(C(=O)N4CCCC4)cc3C2)nn2c(C(F)(F)F)nnc2c1C` [Compound 227, (6-(7,8-dimethyl-3-(trifluoromethyl)-[1,2,4]triazolo[4,3-b]pyridazin-6-yl)-5,6,7,8-tetrahydro-1,6-naphthyridin-3-yl)(pyrrolidin-1-yl)methanone], for which the Emax at 30 µM came to 76% and the EC50 stood at 6410 nM.
On to `Cc1c(N2CCc3ncc(C(=O)NCc4cncs4)cc3C2)nn2c(C(F)(F)F)nnc2c1C` [Compound 228, 6-(7,8-dimethyl-3-(trifluoromethyl)-[1,2,4]triazolo[4,3-b]pyridazin-6-yl)-N-(thiazol-5-ylmethyl)-5,6,7,8-tetrahydro-1,6-naphthyridine-3-carboxamide], for which the maximal effect (Emax) at 30 µM was 85% and the concentration giving a half-maximal response (EC50) amounted to 1720 nM.
`COc1ccc2c(c1)CCCN2c1cnc2c(c1)CN(c1nn3c(C(F)(F)F)nnc3c(C)c1C)CC2` [Compound 229, 6-(7,8-dimethyl-3-(trifluoromethyl)-[1,2,4]triazolo[4,3-b]pyridazin-6-yl)-3-(6-methoxy-3,4-dihydroquinolin-1(2H)-yl)-5,6,7,8-tetrahydro-1,6-naphthyridine]: the Emax at 30 µM was 48% and the half-maximal effective concentration (EC50) came out at 590 nM.
For `Cc1c(N2CCc3ncc(N4CCOc5ccccc54)cc3C2)nn2c(C(F)(F)F)nnc2c1C` [Compound 230, 4-(6-(7,8-dimethyl-3-(trifluoromethyl)-[1,2,4]triazolo[4,3-b]pyridazin-6-yl)-5,6,7,8-tetrahydro-1,6-naphthyridin-3-yl)-3,4-dihydro-2H-benzo[b][1,4]oxazine], in that order: 83% and 398 nM.
`Cc1c(N2CCc3ncc(N4CCCc5ccccc54)cc3C2)nn2c(C(F)(F)F)nnc2c1C` [Compound 231, 3-(3,4-dihydroquinolin-1(2H)-yl)-6-(7,8-dimethyl-3-(trifluoromethyl)-[1,2,4]triazolo[4,3-b]pyridazin-6-yl)-5,6,7,8-tetrahydro-1,6-naphthyridine]: the Emax at 30 µM was found to be 65% and the EC50 is 1930 nM.
`Cc1c(N2CCc3ncc(N4CCOc5ccc(F)cc54)cc3C2)nn2c(C(F)(F)F)nnc2c1C` [Compound 232, 4-(6-(7,8-dimethyl-3-(trifluoromethyl)-[1,2,4]triazolo[4,3-b]pyridazin-6-yl)-5,6,7,8-tetrahydro-1,6-naphthyridin-3-yl)-6-fluoro-3,4-dihydro-2H-benzo[b][1,4]oxazine]: the Emax at 30 µM was 83% and the EC50 was 353 nM.
As for `Cc1cc2nncn2nc1N1CCc2ncc(C(C)(C)O)cc2C1` [Compound 233, 2-(6-(7-methyl-[1,2,4]triazolo[4,3-b]pyridazin-6-yl)-5,6,7,8-tetrahydro-1,6-naphthyridin-3-yl)propan-2-ol], the Emax at 30 µM is 97% and the EC50 was determined as 4010 nM.
For the molecule `Cc1c(N2CCc3ncc(-c4cnn(C5CC5)c4)cc3C2)nn2c(C(F)(F)F)nnc2c1C` [Compound 234, 3-(1-cyclopropyl-1H-pyrazol-4-yl)-6-(7,8-dimethyl-3-(trifluoromethyl)-[1,2,4]triazolo[4,3-b]pyridazin-6-yl)-5,6,7,8-tetrahydro-1,6-naphthyridine], the Emax at 30 µM is 78% and the EC50 was found to be 330 nM.
With `Cc1c(N2CCc3ncc(-c4cnn(C5CCC5)c4)cc3C2)nn2c(C(F)(F)F)nnc2c1C` [Compound 235, 3-(1-cyclobutyl-1H-pyrazol-4-yl)-6-(7,8-dimethyl-3-(trifluoromethyl)-[1,2,4]triazolo[4,3-b]pyridazin-6-yl)-5,6,7,8-tetrahydro-1,6-naphthyridine], the Emax at 30 µM came to 76% and the EC50 stood at 788 nM.
For the molecule `Cc1cnn(C)c1-c1cnc2c(c1)CN(c1nn3c(C(F)(F)F)nnc3c(C)c1C)CC2` [Compound 236, 3-(1,4-dimethyl-1H-pyrazol-5-yl)-6-(7,8-dimethyl-3-(trifluoromethyl)-[1,2,4]triazolo[4,3-b]pyridazin-6-yl)-5,6,7,8-tetrahydro-1,6-naphthyridine], the Emax at 30 µM stood at 65% and the 50% effective concentration (EC50) was found to be 165 nM.
For the molecule `CCn1cc(-c2cnc3c(c2)CN(c2nn4c(C(F)(F)F)nnc4c(C)c2C)CC3)cn1` [Compound 237, 6-(7,8-dimethyl-3-(trifluoromethyl)-[1,2,4]triazolo[4,3-b]pyridazin-6-yl)-3-(1-ethyl-1H-pyrazol-4-yl)-5,6,7,8-tetrahydro-1,6-naphthyridine], the Emax at 30 µM is 84% and the EC50 is 332 nM.
On the same counts, the results for `Cc1c(N2CCc3ncc(-c4cnn(Cc5ccccc5)c4)cc3C2)nn2c(C(F)(F)F)nnc2c1C` [Compound 238, 3-(1-benzyl-1H-pyrazol-4-yl)-6-(7,8-dimethyl-3-(trifluoromethyl)-[1,2,4]triazolo[4,3-b]pyridazin-6-yl)-5,6,7,8-tetrahydro-1,6-naphthyridine] are 55% and 1310 nM.
Regarding `COc1cnc(Cl)c(-c2cnc3c(c2)CN(c2nn4c(C(F)(F)F)nnc4c(C)c2C)CC3)c1` [Compound 239, 3-(2-chloro-5-methoxypyridin-3-yl)-6-(7,8-dimethyl-3-(trifluoromethyl)-[1,2,4]triazolo[4,3-b]pyridazin-6-yl)-5,6,7,8-tetrahydro-1,6-naphthyridine], the Emax at 30 µM turned out to be 57% and the concentration for a half-maximal effect (EC50) is 613 nM.
Regarding `Cc1c(N2CCc3ncc(-c4cnn(C)c4)cc3C2)nn2c(C(F)(F)F)nnc2c1C` [Compound 240, 6-(7,8-dimethyl-3-(trifluoromethyl)-[1,2,4]triazolo[4,3-b]pyridazin-6-yl)-3-(1-methyl-1H-pyrazol-4-yl)-5,6,7,8-tetrahydro-1,6-naphthyridine], the maximal response (Emax) at 30 µM was 77% and the EC50 amounted to 158 nM.
As to `Cc1c(N2CCc3ncc(-c4ccc(N(C)C)nc4)cc3C2)nn2c(C(F)(F)F)nnc2c1C` [Compound 241, 5-(6-(7,8-dimethyl-3-(trifluoromethyl)-[1,2,4]triazolo[4,3-b]pyridazin-6-yl)-5,6,7,8-tetrahydro-1,6-naphthyridin-3-yl)-N,N-dimethylpyridin-2-amine], the maximum response (Emax) at 30 µM stood at 61% and the EC50 came to 1230 nM.
On the same counts, the results for `Cc1c(N2CCc3ncc(-n4nccc4C)cc3C2)nn2c(C(F)(F)F)nnc2c1C` [Compound 242, 6-(7,8-dimethyl-3-(trifluoromethyl)-[1,2,4]triazolo[4,3-b]pyridazin-6-yl)-3-(5-methyl-1H-pyrazol-1-yl)-5,6,7,8-tetrahydro-1,6-naphthyridine] are 80% and 696 nM.
Regarding `Cc1cc(C)n(-c2cnc3c(c2)CN(c2nn4c(C(F)(F)F)nnc4c(C)c2C)CC3)n1` [Compound 243, 3-(3,5-dimethyl-1H-pyrazol-1-yl)-6-(7,8-dimethyl-3-(trifluoromethyl)-[1,2,4]triazolo[4,3-b]pyridazin-6-yl)-5,6,7,8-tetrahydro-1,6-naphthyridine], the Emax at 30 µM is 77% and the concentration giving a half-maximal response (EC50) was 729 nM.
